For orientation: inhibition means the drop in the measured response relative to a control, in per cent.

For two compounds, inhibition results are on record in publication PMC3639963, “A New Class of Small Molecule Inhibitor of BMP Signaling” (PLoS ONE, 2013).

The structures appear in SMILES notation.

Holding throughout (test): Nanosyn kinase profiling
Holding throughout (assay type): biochemical
What all share (conditions): read-out: Percentage inhibition; for inhibition at 0.1 µM: 0.1 µM inhibitor; for inhibition at 1 µM: 1 µM inhibitor

One assay has as its target T1, BRSK1 (Homo sapiens, UniProt Q8TDC3).
T1 construct: purchased Nanosyn (enzymatic panel); SGC in-house recombinant human kinases (DSF panel); Invitrogen (ALK1-6)
T1 sequence (Q8TDC3 1-778): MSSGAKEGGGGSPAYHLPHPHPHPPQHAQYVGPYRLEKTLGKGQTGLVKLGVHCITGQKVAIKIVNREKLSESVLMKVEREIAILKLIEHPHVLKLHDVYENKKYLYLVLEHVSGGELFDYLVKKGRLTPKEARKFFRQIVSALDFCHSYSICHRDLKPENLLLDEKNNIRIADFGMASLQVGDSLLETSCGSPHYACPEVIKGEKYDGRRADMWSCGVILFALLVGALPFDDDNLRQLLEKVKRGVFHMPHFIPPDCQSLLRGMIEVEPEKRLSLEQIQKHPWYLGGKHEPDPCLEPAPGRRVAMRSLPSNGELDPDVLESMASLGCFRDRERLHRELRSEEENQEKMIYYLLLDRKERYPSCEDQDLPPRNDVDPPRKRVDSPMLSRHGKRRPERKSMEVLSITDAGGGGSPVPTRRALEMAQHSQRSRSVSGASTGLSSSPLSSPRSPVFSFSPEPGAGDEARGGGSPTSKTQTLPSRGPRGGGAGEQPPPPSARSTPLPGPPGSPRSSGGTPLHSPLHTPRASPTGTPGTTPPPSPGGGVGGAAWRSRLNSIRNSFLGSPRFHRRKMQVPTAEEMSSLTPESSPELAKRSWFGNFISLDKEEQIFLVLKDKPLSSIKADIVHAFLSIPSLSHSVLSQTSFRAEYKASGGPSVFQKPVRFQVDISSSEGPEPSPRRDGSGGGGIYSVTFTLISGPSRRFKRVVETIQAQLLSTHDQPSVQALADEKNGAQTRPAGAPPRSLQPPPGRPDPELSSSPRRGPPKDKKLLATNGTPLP
An outline of the steps:
(§1)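 Percent inhibition of each kinase was measured with the inhibitor at 0.1 µM and at 1 µM, as part of a 200-kinase human selectivity panel.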

The target of a further assay is T2, CDK2/cycA (Homo sapiens, UniProt P24941).
T2 construct: purchased Nanosyn (enzymatic panel); SGC in-house recombinant human kinases (DSF panel); Invitrogen (ALK1-6)
An outline of the steps:
as §1

A further assay deals with T3, CDK3/cycE (Homo sapiens, UniProt Q00526).
T3 construct: purchased Nanosyn (enzymatic panel); SGC in-house recombinant human kinases (DSF panel); Invitrogen (ALK1-6)
The method, boiled down:
as §1

The target of a further assay is T4, EGFR (Homo sapiens, UniProt P00533).
T4 construct: purchased Nanosyn (enzymatic panel); SGC in-house recombinant human kinases (DSF panel); Invitrogen (ALK1-6)
An outline of the steps: as §1

In the next assay the target is T5, PAR1Bα (Homo sapiens, UniProt Q7KZI7).
T5 construct: purchased Nanosyn (enzymatic panel); SGC in-house recombinant human kinases (DSF panel); Invitrogen (ALK1-6)
The method, boiled down:
as §1

The target of another assay is T6, PHKγ2 (Homo sapiens, UniProt P15735).
T6 construct: purchased Nanosyn (enzymatic panel); SGC in-house recombinant human kinases (DSF panel); Invitrogen (ALK1-6)
T6 sequence (P15735 1-406): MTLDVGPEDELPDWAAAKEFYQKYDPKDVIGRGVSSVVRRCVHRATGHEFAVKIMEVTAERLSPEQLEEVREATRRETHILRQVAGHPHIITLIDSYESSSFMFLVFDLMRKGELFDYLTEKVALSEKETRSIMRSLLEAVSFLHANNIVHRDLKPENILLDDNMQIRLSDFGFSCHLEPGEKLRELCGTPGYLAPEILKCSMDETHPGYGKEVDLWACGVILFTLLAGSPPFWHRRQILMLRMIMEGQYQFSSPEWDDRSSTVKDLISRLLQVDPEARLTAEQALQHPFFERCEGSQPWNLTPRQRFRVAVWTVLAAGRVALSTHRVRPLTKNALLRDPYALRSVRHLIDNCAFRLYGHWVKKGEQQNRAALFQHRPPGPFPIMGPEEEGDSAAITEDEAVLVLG
An outline of the steps: as §1

The target in the next assay is T7, PRAK (Homo sapiens, UniProt Q8IW41).
T7 construct: purchased Nanosyn (enzymatic panel); SGC in-house recombinant human kinases (DSF panel); Invitrogen (ALK1-6)
T7 sequence (Q8IW41 1-473): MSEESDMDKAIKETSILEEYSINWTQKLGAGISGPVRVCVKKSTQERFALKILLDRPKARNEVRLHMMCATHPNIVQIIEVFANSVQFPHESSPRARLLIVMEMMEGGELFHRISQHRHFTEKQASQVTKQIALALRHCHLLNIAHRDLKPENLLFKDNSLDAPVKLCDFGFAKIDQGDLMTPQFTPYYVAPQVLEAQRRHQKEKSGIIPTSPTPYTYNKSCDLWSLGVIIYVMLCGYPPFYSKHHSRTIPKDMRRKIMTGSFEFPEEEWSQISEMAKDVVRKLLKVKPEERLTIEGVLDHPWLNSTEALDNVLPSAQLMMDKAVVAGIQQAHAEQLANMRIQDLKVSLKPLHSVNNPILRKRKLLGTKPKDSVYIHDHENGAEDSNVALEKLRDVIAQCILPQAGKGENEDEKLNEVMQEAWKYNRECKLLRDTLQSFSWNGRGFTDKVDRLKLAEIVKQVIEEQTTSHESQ
The method, boiled down: as §1

A further assay addresses T8, PRKX (Homo sapiens, UniProt P51817).
T8 construct: purchased Nanosyn (enzymatic panel); SGC in-house recombinant human kinases (DSF panel); Invitrogen (ALK1-6)
T8 sequence (P51817 1-358): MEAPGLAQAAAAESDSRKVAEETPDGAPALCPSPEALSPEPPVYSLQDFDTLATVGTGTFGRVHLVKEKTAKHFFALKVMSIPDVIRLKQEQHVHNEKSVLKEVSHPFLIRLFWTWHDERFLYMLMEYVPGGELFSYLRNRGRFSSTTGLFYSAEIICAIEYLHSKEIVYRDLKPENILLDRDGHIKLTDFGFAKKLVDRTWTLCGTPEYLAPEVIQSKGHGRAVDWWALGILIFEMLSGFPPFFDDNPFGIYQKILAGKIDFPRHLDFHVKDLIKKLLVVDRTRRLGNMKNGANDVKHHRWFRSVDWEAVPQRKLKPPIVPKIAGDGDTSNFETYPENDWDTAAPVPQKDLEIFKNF
The method, boiled down: as §1

Another assay has as its target T9, PYK2 (Homo sapiens, UniProt Q14289).
T9 construct: purchased Nanosyn (enzymatic panel); SGC in-house recombinant human kinases (DSF panel); Invitrogen (ALK1-6)
An outline of the steps: as §1

The target of another assay is T10, RON (Homo sapiens, UniProt Q04912).
T10 construct: purchased Nanosyn (enzymatic panel); SGC in-house recombinant human kinases (DSF panel); Invitrogen (ALK1-6)
An outline of the steps: as §1

The target in the next assay is T11, RSK3 (Homo sapiens, UniProt Q15349).
T11 construct: purchased Nanosyn (enzymatic panel); SGC in-house recombinant human kinases (DSF panel); Invitrogen (ALK1-6)
An outline of the steps:
as §1

The target of a further assay is T12, TYK2 (Homo sapiens, UniProt P29597).
T12 construct: purchased Nanosyn (enzymatic panel); SGC in-house recombinant human kinases (DSF panel); Invitrogen (ALK1-6)
The method, boiled down:
as §1

T10 sequence (Q04912 25-1400): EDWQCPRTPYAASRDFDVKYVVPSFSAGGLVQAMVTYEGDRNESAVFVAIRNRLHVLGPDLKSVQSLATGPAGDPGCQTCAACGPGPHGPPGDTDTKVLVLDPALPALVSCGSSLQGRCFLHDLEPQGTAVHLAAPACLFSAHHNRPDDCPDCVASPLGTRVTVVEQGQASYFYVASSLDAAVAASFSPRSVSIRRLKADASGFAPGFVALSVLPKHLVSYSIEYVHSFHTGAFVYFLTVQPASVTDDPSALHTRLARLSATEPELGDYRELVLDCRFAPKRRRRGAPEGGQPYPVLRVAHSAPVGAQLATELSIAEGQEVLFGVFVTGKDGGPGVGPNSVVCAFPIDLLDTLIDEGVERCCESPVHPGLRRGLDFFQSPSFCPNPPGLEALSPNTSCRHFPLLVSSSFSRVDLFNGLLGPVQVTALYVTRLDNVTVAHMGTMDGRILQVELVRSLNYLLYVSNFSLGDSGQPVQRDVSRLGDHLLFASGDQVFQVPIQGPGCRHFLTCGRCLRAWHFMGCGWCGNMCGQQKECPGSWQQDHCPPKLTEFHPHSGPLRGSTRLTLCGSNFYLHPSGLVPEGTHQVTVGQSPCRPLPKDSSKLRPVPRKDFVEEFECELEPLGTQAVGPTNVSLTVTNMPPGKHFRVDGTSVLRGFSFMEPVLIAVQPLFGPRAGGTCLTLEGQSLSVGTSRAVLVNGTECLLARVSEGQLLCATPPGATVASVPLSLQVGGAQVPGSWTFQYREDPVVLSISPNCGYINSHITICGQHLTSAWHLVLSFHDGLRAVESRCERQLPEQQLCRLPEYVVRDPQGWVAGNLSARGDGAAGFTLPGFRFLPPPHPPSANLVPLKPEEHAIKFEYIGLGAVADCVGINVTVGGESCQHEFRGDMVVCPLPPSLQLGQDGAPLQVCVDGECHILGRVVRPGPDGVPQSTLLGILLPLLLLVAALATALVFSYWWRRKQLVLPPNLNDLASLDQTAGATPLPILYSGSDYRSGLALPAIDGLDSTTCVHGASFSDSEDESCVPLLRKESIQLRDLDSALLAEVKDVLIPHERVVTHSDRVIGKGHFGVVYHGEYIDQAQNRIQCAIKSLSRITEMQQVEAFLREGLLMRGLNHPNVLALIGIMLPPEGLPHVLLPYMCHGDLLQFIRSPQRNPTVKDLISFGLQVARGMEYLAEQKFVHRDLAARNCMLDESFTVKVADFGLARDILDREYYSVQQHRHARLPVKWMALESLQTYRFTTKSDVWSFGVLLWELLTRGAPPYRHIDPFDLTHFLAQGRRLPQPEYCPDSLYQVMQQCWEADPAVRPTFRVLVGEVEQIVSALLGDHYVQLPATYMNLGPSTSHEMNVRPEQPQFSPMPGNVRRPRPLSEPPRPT
T4 sequence (P00533 25-1210): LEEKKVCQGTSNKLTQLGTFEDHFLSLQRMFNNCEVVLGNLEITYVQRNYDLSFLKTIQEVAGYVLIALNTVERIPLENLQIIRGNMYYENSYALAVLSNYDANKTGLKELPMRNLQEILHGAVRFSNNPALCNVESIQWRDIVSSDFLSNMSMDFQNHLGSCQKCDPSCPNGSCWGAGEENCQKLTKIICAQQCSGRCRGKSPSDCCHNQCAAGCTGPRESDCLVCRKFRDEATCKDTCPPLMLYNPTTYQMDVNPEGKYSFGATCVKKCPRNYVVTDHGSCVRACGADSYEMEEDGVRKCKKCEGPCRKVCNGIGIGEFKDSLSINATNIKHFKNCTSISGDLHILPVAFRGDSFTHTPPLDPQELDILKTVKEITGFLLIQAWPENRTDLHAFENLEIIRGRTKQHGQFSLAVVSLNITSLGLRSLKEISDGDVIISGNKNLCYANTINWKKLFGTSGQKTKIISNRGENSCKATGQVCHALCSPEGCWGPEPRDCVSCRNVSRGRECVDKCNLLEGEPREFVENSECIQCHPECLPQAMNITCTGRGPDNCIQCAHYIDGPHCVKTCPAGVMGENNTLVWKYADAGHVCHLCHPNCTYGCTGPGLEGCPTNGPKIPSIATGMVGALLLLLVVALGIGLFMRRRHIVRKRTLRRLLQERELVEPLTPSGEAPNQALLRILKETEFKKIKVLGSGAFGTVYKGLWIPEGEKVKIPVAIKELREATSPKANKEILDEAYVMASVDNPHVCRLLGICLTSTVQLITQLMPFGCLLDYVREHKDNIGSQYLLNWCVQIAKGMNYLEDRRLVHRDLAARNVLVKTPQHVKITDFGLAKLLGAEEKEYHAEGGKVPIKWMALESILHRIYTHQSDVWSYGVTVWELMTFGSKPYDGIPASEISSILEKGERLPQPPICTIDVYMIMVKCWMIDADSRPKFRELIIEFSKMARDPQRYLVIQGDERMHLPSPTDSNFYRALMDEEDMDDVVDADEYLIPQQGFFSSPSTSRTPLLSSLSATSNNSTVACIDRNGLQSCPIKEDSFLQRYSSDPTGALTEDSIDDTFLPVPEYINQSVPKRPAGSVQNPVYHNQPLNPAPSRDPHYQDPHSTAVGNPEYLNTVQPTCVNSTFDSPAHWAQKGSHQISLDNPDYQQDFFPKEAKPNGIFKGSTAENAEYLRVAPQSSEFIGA
T3 sequence (Q00526 whole entry): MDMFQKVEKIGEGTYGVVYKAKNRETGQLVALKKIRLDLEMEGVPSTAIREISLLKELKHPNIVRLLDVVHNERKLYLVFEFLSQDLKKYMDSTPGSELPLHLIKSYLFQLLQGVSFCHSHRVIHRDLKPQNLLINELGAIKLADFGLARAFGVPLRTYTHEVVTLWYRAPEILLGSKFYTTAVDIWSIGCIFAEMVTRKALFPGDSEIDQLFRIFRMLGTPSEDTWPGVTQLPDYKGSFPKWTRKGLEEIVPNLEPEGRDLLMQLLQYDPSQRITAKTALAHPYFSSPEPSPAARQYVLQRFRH
T3 sequence (P24864 whole entry partner): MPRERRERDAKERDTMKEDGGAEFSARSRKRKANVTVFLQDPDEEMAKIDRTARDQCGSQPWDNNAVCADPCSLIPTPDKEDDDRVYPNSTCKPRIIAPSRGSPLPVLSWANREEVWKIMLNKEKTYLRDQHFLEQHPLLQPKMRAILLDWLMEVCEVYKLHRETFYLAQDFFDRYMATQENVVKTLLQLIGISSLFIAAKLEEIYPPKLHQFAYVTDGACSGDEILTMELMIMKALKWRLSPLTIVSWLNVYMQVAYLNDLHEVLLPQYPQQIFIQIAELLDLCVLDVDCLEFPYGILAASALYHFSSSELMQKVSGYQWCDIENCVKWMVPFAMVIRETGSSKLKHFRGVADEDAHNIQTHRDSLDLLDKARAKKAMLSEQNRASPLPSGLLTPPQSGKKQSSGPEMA
T5 sequence (Q7KZI7 1-725 isoform Q7KZI7-4): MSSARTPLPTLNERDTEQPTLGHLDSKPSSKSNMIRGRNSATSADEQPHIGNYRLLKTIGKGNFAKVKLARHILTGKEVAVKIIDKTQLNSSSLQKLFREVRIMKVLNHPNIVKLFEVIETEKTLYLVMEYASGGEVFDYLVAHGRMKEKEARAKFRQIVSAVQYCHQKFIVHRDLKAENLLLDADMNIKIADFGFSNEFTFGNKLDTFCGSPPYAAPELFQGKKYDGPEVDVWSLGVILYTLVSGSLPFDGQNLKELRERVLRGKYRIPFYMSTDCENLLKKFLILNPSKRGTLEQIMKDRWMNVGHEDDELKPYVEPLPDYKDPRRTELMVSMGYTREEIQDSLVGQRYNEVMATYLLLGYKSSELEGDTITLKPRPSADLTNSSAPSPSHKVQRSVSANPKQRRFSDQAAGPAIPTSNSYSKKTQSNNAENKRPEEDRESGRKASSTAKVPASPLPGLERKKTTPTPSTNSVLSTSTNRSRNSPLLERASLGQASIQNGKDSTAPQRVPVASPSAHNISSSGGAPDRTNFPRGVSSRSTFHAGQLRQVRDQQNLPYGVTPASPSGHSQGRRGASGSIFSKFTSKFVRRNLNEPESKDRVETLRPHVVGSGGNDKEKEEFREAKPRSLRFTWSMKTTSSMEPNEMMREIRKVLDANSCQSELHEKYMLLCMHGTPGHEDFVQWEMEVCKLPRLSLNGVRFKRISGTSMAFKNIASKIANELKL
T9 sequence (Q14289 whole entry): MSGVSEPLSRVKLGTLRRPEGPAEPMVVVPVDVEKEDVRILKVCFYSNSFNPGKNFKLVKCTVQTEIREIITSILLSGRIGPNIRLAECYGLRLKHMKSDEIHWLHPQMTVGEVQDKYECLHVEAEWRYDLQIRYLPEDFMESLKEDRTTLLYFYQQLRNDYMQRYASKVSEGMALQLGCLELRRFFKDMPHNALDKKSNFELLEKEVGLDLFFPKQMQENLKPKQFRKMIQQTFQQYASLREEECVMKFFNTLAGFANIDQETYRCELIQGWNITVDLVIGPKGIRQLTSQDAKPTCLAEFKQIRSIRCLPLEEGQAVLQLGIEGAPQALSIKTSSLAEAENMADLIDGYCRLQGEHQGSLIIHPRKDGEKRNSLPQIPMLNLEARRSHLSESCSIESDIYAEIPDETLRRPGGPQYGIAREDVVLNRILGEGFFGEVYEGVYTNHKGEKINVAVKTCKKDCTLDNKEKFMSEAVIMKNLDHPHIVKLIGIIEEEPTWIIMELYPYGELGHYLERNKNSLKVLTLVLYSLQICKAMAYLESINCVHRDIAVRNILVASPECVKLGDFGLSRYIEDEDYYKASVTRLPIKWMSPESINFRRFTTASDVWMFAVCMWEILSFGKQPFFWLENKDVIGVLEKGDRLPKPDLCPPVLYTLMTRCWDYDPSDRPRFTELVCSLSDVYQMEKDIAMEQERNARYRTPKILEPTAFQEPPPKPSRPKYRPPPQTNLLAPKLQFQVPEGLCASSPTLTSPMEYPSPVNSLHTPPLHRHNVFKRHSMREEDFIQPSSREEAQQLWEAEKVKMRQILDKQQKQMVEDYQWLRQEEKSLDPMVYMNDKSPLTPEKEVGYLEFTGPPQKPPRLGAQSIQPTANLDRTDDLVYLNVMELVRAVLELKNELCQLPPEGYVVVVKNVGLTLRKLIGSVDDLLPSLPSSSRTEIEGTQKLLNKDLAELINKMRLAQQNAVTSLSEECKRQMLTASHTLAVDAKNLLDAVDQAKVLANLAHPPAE

Consider `c1ccc2c(-c3cnn4cc(-c5ccc(N6CCNCC6)cc5)cnc34)ccnc2c1` [LDN-193189], for which the inhibition at 0.1 µM on BRSK1 stood at 3%; on CDK2/cycA, 1.2%; at CDK3/cycE it was 1.6%; at EGFR, 1.5%; on PAR1Bα it was 6.9%; at PHKγ2, 3.5%. Further, the inhibition at 0.1 µM on PRAK is 0.8%; at PRKX it was 0.2%; at PYK2, 4.6%; on RON, -2%; on RSK3, 1.5%; at TYK2, -1%. Moreover, the inhibition at 1 µM at BRSK1 came out at 17%; at CDK2/cycA, 4.1%; at CDK3/cycE it was 7%; on EGFR, 4.8%; at PAR1Bα, 43%; at PHKγ2 it was 4.9%. The inhibition at 1 µM is 0.1% on PRAK; 1.2% on PRKX; 9% at PYK2; 12% at RON; 5.6% at RSK3; -2% at TYK2.
Consider `COc1cc(-c2cc(-c3cccc(O)c3)cnc2N)cc(OC)c1OC` [K02288, 3-[6-amino-5-(3,4,5-trimethoxy-phenyl)-pyridin-3-yl]-phenol], for which the inhibition at 0.1 µM is 2.3% at BRSK1; 0% at CDK2/cycA; 1.6% at CDK3/cycE; 2.4% on EGFR; 2.3% at PAR1Bα; -3% at PHKγ2. Also, the inhibition at 0.1 µM is 0% on PRAK; -1% on PRKX; -1% at PYK2; 3% on RON; 0.6% at RSK3; 0% on TYK2. Besides, the inhibition at 1 µM at BRSK1 was 0%; at CDK2/cycA, 0%; on CDK3/cycE, -91%; on EGFR, 12%; on PAR1Bα it was 7%; on PHKγ2, -3%. Besides, the inhibition at 1 µM at PRAK is 0%; at PRKX it was -1%; on PYK2, 0%; at RON, -1%; at RSK3 it was 1.1%; on TYK2, 1.8%.
